Measured values as given in article PMC9065575, “Synthesis, computational studies, antimycobacterial and antibacterial properties of pyrazinoic acid–isoniazid hybrid conjugates” (RSC Advances, 2019).
Values joined by “and” are separate entries in the source; they are usually repeats but may differ in a detail not shown here. Equal entries are not always repeated. Where two headings read alike, the source gives them in different places.

Experiments:
Klebsiella pneumoniae = experiment: Aerobic antibacterial MIC, standard dilution technique; type: cell-based; conditions: clinical isolate, read-out: Minimum inhibitory concentration (MIC) Klebsiella pneumoniae
Description: (§1) Antibacterial properties were investigated for the synthesized compounds against a variety of Gram-positive (Staphylococcus aureus, Enterococcus faecalis) and Gram-negative (Klebsiella pneumonia, Proteus vulgaris, Pseudomonas aeruginosa) clinical isolate bacteria utilizing the standard technique.[21]

Enterococcus faecalis = experiment: as above; type: cell-based; conditions: clinical isolate, read-out: Minimum inhibitory concentration (MIC) Enterococcus faecalis
Description: as §1

Proteus vulgaris = experiment: as above; type: cell-based; conditions: clinical isolate, read-out: Minimum inhibitory concentration (MIC) Proteus vulgaris
Description: as §1

Pseudomonas aeruginosa = experiment: as above; type: cell-based; conditions: clinical isolate, read-out: Minimum inhibitory concentration (MIC) Pseudomonas aeruginosa
Description: as §1

Staphylococcus aureus = experiment: as above; type: cell-based; conditions: clinical isolate, read-out: Minimum inhibitory concentration (MIC) Staphylococcus aureus
Description: as §1

Mycobacterium fortuitum = experiment: microbe, parasite or virus in culture; type: cell-based; conditions: Mycolicibacterium fortuitum
Mycobacterium bovis = experiment: microbe, parasite or virus in culture; type: cell-based; conditions: Mycobacterium tuberculosis variant bovis, read-out: Minimum inhibitory concentration (MIC) M. bovis
Mycobacterium marinum = experiment: microbe, parasite or virus in culture; type: cell-based; conditions: clinical isolate, read-out: Minimum inhibitory concentration (MIC) M. marinum
[1] = test system: M. tuberculosis Erdman strain expressing luciferase; experiment: microbe, parasite or virus in culture; type: cell-based, Mycobacterium tuberculosis; conditions: 30 μg mL^−1, pH 7.0, 7 days, vs untreated controls
[2] = Enterococcus faecalis, value in parentheses
[3] = clinical isolate, observed MIC, read-out: Minimum inhibitory concentration (MIC) M. fortuitum
[4] = clinical isolate, read-out: Minimum inhibitory concentration (MIC) M. fortuitum

SMILES | MIC (Klebsiella pneumoniae) | MIC (Enterococcus faecalis; Enterococcus faecalis) | MIC (Proteus vulgaris) | MIC (Pseudomonas aeruginosa) | MIC (Pseudomonas aeruginosa; value in parentheses) | MIC (Staphylococcus aureus) | MIC (Klebsiella pneumoniae; value in parentheses) | MIC (Enterococcus faecalis; [2]) | MIC (Proteus vulgaris; value in parentheses) | MIC (Staphylococcus aureus; value in parentheses) | MIC (Enterococcus faecalis; value in parentheses) | MIC (Mycobacterium fortuitum; M. fortuitum, observed values listed with the BMLR-QSAR model, read-out: Observed MIC (Table S6)) | MIC (Mycobacterium fortuitum; [3]) | MIC (Mycobacterium fortuitum; [4]) | MIC (Mycobacterium bovis) | MIC (Mycobacterium marinum; observed MIC) | MIC (Mycobacterium marinum) | Observed % growth inhibition at 30 µg/mL [1] | inhibition at 30 µg/mL ([1]; Mycobacterium tuberculosis, ERDMAN, 168 h, read-out: Observed % growth inhibition at 30 µg/mL)
O=C(NNC(=O)c1cnccn1)c1ccncc1 [C00018] | 8 µg/mL | 16 µg/mL | 64 µg/mL | 0.03 µg/mL | 0.12 µM | 8 µg/mL |  |  |  |  |  |  |  |  |  |  |  |  | 
CC(C)C[C@H](NC(=O)c1cnccn1)C(=O)O [C00004] | 64 µg/mL | 0.03 µg/mL | 8 µg/mL | 0.03 µg/mL | 0.13 µM | 1020 µg/mL | 270 µM | 0.13 µM | 33.7 µM | 4320 µM |  |  |  |  |  |  |  |  | 
CC(C)[C@H](NC(=O)c1cnccn1)C(=O)NNC(=O)c1ccncc1 [C00012] | 8 µg/mL | 0.12 µg/mL | 0.06 µg/mL | 0.12 µg/mL | 0.35 µM | 16 µg/mL | 23.4 µM |  | 0.18 µM | 46.7 µM | 0.35 µM |  |  |  |  |  |  |  | 
O=C(NNC(=O)[C@H](Cc1c[nH]c2ccccc12)NC(=O)c1cnccn1)c1ccncc1 [C00017] | 4 µg/mL | 0.03 µg/mL | 0.06 µg/mL | 0.12 µg/mL | 0.28 µM | 16 µg/mL | 9.31 µM | 0.07 µM | 0.14 µM | 37.3 µM |  |  |  |  |  |  |  |  | 
CC[C@@H](C)[C@H](NC(=O)c1cnccn1)C(=O)O [C00006] | 8 µg/mL | 0.03 µg/mL | 0.06 µg/mL | 0.12 µg/mL | 0.51 µM | 16 µg/mL | 33.7 µM | 0.13 µM | 0.25 µM | 67.4 µM |  |  |  |  |  |  |  |  | 
O=C(NNC(=O)c1ccncc1)c1ccncc1 [C00019] | 4 µg/mL | 16 µg/mL | 0.03 µg/mL | 0.06 µg/mL | 0.25 µM | 4 µg/mL |  |  |  |  |  |  |  |  |  |  |  |  | 
O=C(NC(Cc1ccccc1)C(=O)O)c1cnccn1 (stereo not shown) [C00009] | 16 µg/mL | 0.03 µg/mL | 0.06 µg/mL | 16 µg/mL | 59 µM | 16 µg/mL | 59 µM | 0.11 µM | 0.22 µM | 59 µM |  |  |  |  |  |  |  |  | 
CSCC[C@H](NC(=O)c1cnccn1)C(=O)O [C00007] | 64 µg/mL | 0.03 µg/mL | 0.06 µg/mL | 0.12 µg/mL | 0.47 µM | 16 µg/mL | 251 µM | 0.12 µM | 0.24 µM | 62.7 µM |  |  |  |  |  |  |  |  | 
O=C(NNC(=O)C(Cc1ccccc1)NC(=O)c1cnccn1)c1ccncc1 (stereo not shown) [C00016] | 8 µg/mL | 0.03 µg/mL | 16 µg/mL | 32 µg/mL | 82 µM | 16 µg/mL | 20.5 µM | 0.08 µM | 41 µM | 41 µM |  |  |  |  |  |  |  |  | 
NC(=O)c1cnccn1 [PZA, pyrazinamide, reference compound] |  |  |  |  |  |  |  |  |  |  |  | 81200 µM | 81.2 µM | 10 µg/mL | 162 µM and 20 µg/mL | 81.2 µM | 10 µg/mL | not observed | 
O=C(N[C@@H](Cc1ccccc1)C(=O)O)c1cnccn1 [C00008] | 64 µg/mL | 0.12 µg/mL | 0.06 µg/mL | 0.12 µg/mL | 0.44 µM | 64 µg/mL | 236 µM | 0.44 µM | 0.22 µM | 236 µM |  |  |  |  |  |  |  |  | 
NC(=O)c1cnccn1 [C00001] | 64 µg/mL | 0.12 µg/mL | 8 µg/mL | 4 µg/mL | 32.5 µM | 1020 µg/mL | 520 µM | 0.97 µM | 65 µM | 8320 µM |  |  |  |  |  |  |  |  | 
CC(C)[C@H](NC(=O)c1cnccn1)C(=O)O [C00005] | 0.03 µg/mL | 0.03 µg/mL | 0.06 µg/mL | 4 µg/mL | 17.9 µM | 512 µg/mL | 0.13 µM |  | 0.27 µM | 2290 µM |  |  |  |  |  |  |  |  | 
CC[C@H](C)[C@H](NC(=O)c1cnccn1)C(=O)NNC(=O)c1ccncc1 [C00013] | 8 µg/mL | 0.03 µg/mL | 0.06 µg/mL | 0.12 µg/mL | 0.34 µM | 16 µg/mL | 22.4 µM | 0.08 µM | 0.17 µM | 44.9 µM |  |  |  |  |  |  |  |  | 
CC(C)C[C@H](NC(=O)c1cnccn1)C(=O)NNC(=O)c1ccncc1 [C00011] | 4 µg/mL | 0.03 µg/mL | 0.06 µg/mL | 64 µg/mL | 180 µM | 2 µg/mL | 11.2 µM | 0.08 µM | 0.17 µM | 5.61 µM |  |  |  |  |  |  |  |  | 
O=C(N[C@@H](Cc1c[nH]c2ccccc12)C(=O)O)c1cnccn1 [C00010] | 64 µg/mL | 0.03 µg/mL | 0.06 µg/mL | 0.12 µg/mL | 0.39 µM | 64 µg/mL | 206 µM | 0.1 µM | 0.19 µM | 206 µM |  |  |  |  |  |  |  |  | 
O=C(NNC(=O)[C@H](Cc1ccccc1)NC(=O)c1cnccn1)c1ccncc1 [C00015] | 8 µg/mL | 0.12 µg/mL | 0.06 µg/mL | 0.12 µg/mL | 0.31 µM | 16 µg/mL | 20.5 µM | 0.31 µM | 0.15 µM | 41 µM |  |  |  |  |  |  |  |  | 
CSCC[C@H](NC(=O)c1cnccn1)C(=O)NNC(=O)c1ccncc1 [C00014] | 4 µg/mL | 0.03 µg/mL | 0.06 µg/mL | 0.12 µg/mL | 0.32 µM | 64 µg/mL | 10.7 µM | 0.08 µM | 0.16 µM | 171 µM |  |  |  |  |  |  |  |  | 
NNC(=O)c1ccncc1 [C00002] | 8 µg/mL | 16 µg/mL | 64 µg/mL | 64 µg/mL | 467 µM | 64 µg/mL | 58.3 µM | 117 µM | 467 µM | 467 µM |  |  |  |  |  |  |  |  | 
NNC(=O)c1ccncc1 [INH, isoniazid] |  |  |  |  |  |  |  |  |  |  |  |  | 146 µM | 20 µg/mL | 146 µM and 20 µg/mL | 72.9 µM | 10 µg/mL |  | > 70%
